One molecule from patent US7910588B2, “5-HT7 receptor antagonists” (Eli Lilly and Company, priority 2007, dated 2011) can be followed below.

pKi: −log10 of the molar value. Values joined by “and” are separate entries in the source; they are usually repeats but may differ in a detail not shown here. Equal entries are not always repeated.

One test concerns the target alpha 1 adrenergic. In words: Radioligand binding assay, alpha 1 adrenergic. On the procedure: (§1) [^3H] […] The reactions are incubated at room temperature for 3 hr. and then counted in a Trilux Microbeta™ scintillation counter to detect receptor-bound radioligand. Binding data are analyzed by computer-assisted 4 parameter fit analysis (ID Business Solutions Ltd, Guildford, Surrey, UK). […]
(§2) Affinity for other serotonin receptor subtypes as well as for alpha 1 & 2 adrenergic receptors can readily be determined by modification of the above described radioligand receptor binding assay using membranes derived from cells stably expressing the desired receptor subtype including the 5-HT1A, 5-HT1B, and 5-HT1D subtypes, as well as the 5-HT2A, 5-HT2B, 5-HT2C, 5-HT4, 5-HT7, and 5-HT6 receptor subtypes. […]

A further test has as its target T1, 5-HT7 receptor (Homo sapiens, UniProt P34969).
T1 construct: expressed in transfected cells
In words: 5-HT7 receptor affinity: [3H]5-HT radioligand binding assay. Conditions: membranes of AV-12 cells, 1 nM [3H]5-HT. The method, then:
Membranes for affinity and antagonist activity assays are prepared essentially as follows. AV-12 cells, stably expressing the 5-HT7 receptor, are grown as a monolayer in 5×T-150 flasks in DMEM/F12 (3:1) 5% FBS, 20 mM HEPES, […] geneticin, 50 mg/mL tobramycin. After growing to 90% confluence the media is removed and replaced with Hybritech media containing 2% horse serum, […] dextran sulfate, 1 mg/mL nucellin, 1 mg/mL human transferrin (partially iron saturated), 50 mg/mL tobramycin, 20 mM HEPES, […] geneticin, 0.04% pluronic F68. […]
To prepare membranes, the above pellets are resuspended in ice-cold Tris buffer (20 mM Tris HCl, pH 7.4 at 23° C., 5 mM EDTA) and homogenized with a Wheaton tissue grinder. […] Protein concentrations are determined by the method of Bradford. […]

Another test deals with T2, 5-HT1A (Homo sapiens, UniProt P08908).
T2 construct: expressed in transfected cells
T2 sequence (P08908 1-422): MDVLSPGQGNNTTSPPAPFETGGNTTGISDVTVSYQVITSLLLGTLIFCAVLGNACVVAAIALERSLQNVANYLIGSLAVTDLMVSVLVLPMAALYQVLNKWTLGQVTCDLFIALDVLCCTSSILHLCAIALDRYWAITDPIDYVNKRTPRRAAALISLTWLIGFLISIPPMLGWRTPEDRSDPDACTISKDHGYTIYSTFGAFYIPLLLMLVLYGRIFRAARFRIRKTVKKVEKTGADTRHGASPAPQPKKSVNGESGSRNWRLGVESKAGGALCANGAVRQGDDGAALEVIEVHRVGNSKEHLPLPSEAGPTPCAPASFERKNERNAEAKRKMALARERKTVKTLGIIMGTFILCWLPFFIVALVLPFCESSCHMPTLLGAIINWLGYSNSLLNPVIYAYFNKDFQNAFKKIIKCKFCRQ
In words: Radioligand binding assay, 5-HT1A. The method, then:
as §1, §2

T1 sequence (P34969 whole entry): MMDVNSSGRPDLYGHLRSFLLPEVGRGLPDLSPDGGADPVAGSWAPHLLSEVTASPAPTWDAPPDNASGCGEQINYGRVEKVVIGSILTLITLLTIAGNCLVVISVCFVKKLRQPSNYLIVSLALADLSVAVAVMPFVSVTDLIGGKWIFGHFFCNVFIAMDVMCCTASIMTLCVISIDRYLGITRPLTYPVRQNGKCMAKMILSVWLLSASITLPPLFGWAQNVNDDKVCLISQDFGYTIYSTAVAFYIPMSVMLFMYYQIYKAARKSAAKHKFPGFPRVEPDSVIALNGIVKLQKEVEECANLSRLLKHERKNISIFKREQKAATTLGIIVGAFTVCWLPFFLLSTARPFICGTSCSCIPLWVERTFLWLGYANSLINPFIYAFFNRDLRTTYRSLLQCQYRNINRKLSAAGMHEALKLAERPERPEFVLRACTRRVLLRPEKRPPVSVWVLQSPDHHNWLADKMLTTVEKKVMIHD

In the case of `CCn1ncc(CN2CCN(c3cccnc3N3CCC(O)CC3)CC2)c1C.Cl` [Example 1, 3′-[4-(1-Ethyl-5-methyl-1H-pyrazol-4-ylmethyl)-piperazin-1-yl]-3,4,5,6-tetrahydro-2H-[1,2]bipyridinyl-4-ol hydrochloride], the pKi at alpha 1 adrenergic was 5.86; at 5-HT7 receptor, ~7.79 and 7.79; at 5-HT1A it was 6.67.
